Reference: publication PMC7642415, “Perturbed structural dynamics underlie inhibition and altered efflux of the multidrug resistance pump AcrB” (Nature Communications, 2020)
Where a SMILES comes first, the peptide text is derived from it.

What was measured:
AcrB [1] = target: T1, AcrB (Escherichia coli, UniProt P31224); experiment: differential HDX-MS on purified AcrB WT; type: binding
T1 construct: full-length AcrB with C-terminal 6xHis tag, in DDM micelles

AcrB [2] = target: T2, AcrB (Escherichia coli, UniProt P31224, G288D); type: binding
T2 construct: full-length AcrB with C-terminal 6xHis tag, in DDM micelles
T2 sequence (P31224 whole entry G288D): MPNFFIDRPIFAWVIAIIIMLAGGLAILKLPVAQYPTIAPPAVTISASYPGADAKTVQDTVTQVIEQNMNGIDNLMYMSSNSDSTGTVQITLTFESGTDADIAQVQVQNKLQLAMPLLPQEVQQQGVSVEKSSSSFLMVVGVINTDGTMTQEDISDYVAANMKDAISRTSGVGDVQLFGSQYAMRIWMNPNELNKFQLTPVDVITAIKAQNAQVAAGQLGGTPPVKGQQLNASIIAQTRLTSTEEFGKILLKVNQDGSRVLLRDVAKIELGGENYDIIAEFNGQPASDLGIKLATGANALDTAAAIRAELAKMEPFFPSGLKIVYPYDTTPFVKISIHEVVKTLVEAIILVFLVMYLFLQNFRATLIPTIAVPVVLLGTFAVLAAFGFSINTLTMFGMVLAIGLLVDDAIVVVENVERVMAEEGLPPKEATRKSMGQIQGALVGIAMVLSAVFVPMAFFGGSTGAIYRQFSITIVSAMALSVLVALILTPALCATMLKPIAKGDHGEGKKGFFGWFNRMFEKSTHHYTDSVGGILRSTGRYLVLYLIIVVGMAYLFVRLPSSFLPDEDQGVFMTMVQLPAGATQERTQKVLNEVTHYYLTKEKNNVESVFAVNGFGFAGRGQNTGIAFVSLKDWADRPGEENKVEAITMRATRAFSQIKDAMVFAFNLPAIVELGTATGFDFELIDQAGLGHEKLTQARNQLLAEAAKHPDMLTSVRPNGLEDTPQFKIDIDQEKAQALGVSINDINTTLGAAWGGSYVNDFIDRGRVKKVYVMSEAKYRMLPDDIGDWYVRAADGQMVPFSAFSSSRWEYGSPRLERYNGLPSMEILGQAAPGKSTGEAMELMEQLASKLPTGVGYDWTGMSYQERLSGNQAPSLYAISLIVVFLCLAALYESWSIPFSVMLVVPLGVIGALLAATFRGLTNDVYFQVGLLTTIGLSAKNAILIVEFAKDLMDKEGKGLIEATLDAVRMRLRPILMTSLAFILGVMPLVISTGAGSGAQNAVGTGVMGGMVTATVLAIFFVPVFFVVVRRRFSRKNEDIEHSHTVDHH

T1 sequence (P31224 whole entry): as the sequence (P31224 whole entry G288D) above, with D288G counted along it

Question: Which results are given for `NC(N)=NCCC[C@H](NC(=O)[C@@H](N)Cc1ccccc1)C(=O)Nc1ccc2ccccc2c1` [PAβN, phenylalanine-arginine-β-naphthylamide] (HELM PEPTIDE1{F.R.[c1ccc2cc(N[*:1])ccc2c1]}$$$$V2.0)?
Answer: differential HDX-MS on purified AcrB WT (AcrB [1]): inhibitor binding led to HDX reduction throughout extensive parts of the PC1/PC2 cleft of the drug-binding pockets; differential HDX-MS on purified AcrB G288D (AcrB [2]): Upon substrate binding, PAβN caused reduced HDX within the PC1/PC2 regions for AcrB^G288D
